Values after ≈ are worked out from the molar mass of the structure shown. Where two headings read alike, the source gives them in different places.
Key:
[1] = system: Enterococcus faecalis ATCC 29212; test: MIC against Enterococcus faecalis ATCC 29212; format: cell-based; details: ATCC29212
Summary of the method: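 MIC measured by broth microdilution or agar dilution following CLSI guidelines (M7-A7 for aerobes, M11-A6 for anaerobes).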

[2] = system: Enterococcus faecalis (VRE) ATCC 51299; test: MIC against Enterococcus faecalis (VRE) ATCC 51299; format: cell-based
[3] = system: Enterococcus faecium (VRE) ATCC 700221; test: MIC against Enterococcus faecium (VRE) ATCC 700221; format: cell-based
[4] = system: Enterococcus faecium (VSE) ATCC 19434; test: MIC against Enterococcus faecium (VSE) ATCC 19434; format: cell-based; details: ATCC19434
[5] = system: Moraxella catarrhalis ATCC 25240; test: MIC against Moraxella catarrhalis ATCC 25240; format: cell-based; details: ATCC25240
[6] = system: Staphylococcus aureus ATCC 29213; test: MIC against Staphylococcus aureus ATCC 29213; format: cell-based; details: ATCC29213
[7] = system: Staphylococcus epidermidis ATCC 12228; test: MIC against Staphylococcus epidermidis ATCC 12228; format: cell-based; details: ATCC12228
[8] = system: Staphylococcus haemolyticus ATCC 29970; test: MIC against Staphylococcus haemolyticus ATCC 29970; format: cell-based; details: ATCC29970
[9] = system: Streptococcus mutans ATCC 35668; test: MIC against Streptococcus mutans ATCC 35668; format: cell-based; details: ATCC35668
[10] = system: Streptococcus pyogenes ATCC 51339; test: MIC against Streptococcus pyogenes ATCC 51339; format: cell-based; details: ATCC51339
[11] = system: Streptococcus agalactiae ATCC 13813; test: MIC against Streptococcus agalactiae ATCC 13813; format: cell-based; details: ATCC13813
[12] = system: Streptococcus pneumoniae ATCC 49619; test: MIC against Streptococcus pneumoniae ATCC 49619; format: cell-based; details: ATCC49619
Staphylococcus aureus = test: mouse Staphylococcus aureus septicaemia model of infection, survival at day 7; format: in vivo
Description: Some of the Example compounds were also tested for activity in a mouse Staphylococcus aureus septicaemia model of infection.

[13] = system: Bacteroides fragilis ATCC 25285; test: MIC against Bacteroides fragilis ATCC 25285; format: cell-based; details: ATCC25285, Isolate ID ATCC 25285
[14] = system: Chlamydia trachomatis T71214; test: MIC against Chlamydia trachomatis T71214; format: cell-based; details: Isolate ID T71214
[15] = system: Chlamydophila pneumoniae IOL207; test: MIC against Chlamydophila pneumoniae IOL207; format: cell-based; details: Chlamydia pneumoniae; Isolate ID IOL207
[16] = system: Clostridium difficile NQS 84; test: MIC against Clostridium difficile NQS 84; format: cell-based; details: Clostridioides difficile, NQS84; Isolate ID NQS 84
Excerpt: Institute. Methods for Dilution Antimicrobial Susceptibility Tests for Bacteria That Grow Aerobically; Approved Standard—Seventh Edition. Document M7-A7. CLSI, Wayne, Pa., 2006; Clinical Laboratories and Standards Institute. Methods for Antimicrobial Susceptibility Testing of Anaerobic Bacteria; Approved Standard—Sixth Edition. Document M11-A6. CLSI, Wayne, Pa., 2004).

[17] = system: Clostridium perfringens IV306001; test: microbe, parasite or virus in culture; format: cell-based; details: IV306001, read-out: MIC (Activity) against Clostridium perfringens
Escherichia coli N43 = test: MIC against Escherichia coli N43; format: cell-based; details: Isolate ID N43
[18] = system: Haemophilus influenzae ATCC 49247; test: MIC against Haemophilus influenzae ATCC 49247; format: cell-based; details: ATCC49247, Isolate ID ATCC 49247
[19] = system: Helicobacter pylori DJF 11; test: MIC against Helicobacter pylori DJF 11; format: cell-based; details: DJF11, Isolate ID DJF 11
[20] = system: Lactococcus lactis ATCC 11454; test: MIC against Lactococcus lactis ATCC 11454; format: cell-based; details: ATCC11454, Isolate ID ATCC 11454
[21] = system: Legionella pneumophila LP NCTC 11192; test: microbe, parasite or virus in culture; format: cell-based; details: NCTC11192, read-out: MIC (Activity) against Legionella pneumophila
[22] = system: Listeria monocytogenes ATCC 19115; test: MIC against Listeria monocytogenes ATCC 19115; format: cell-based; details: ATCC19115, Isolate ID ATCC 19115
[23] = system: Mycoplasma hominis MH NCTC 10111; test: MIC against Mycoplasma hominis MH NCTC 10111; format: cell-based; details: Metamycoplasma hominis, NCTC10111; Isolate ID MH NCTC 10111
Mycoplasma hominis MH 10 = test: MIC against Mycoplasma hominis MH 10; format: cell-based; details: Metamycoplasma hominis, MH10; Isolate ID MH 10
[24] = system: Mycoplasma pneumoniae MP 9; test: MIC against Mycoplasma pneumoniae MP 9; format: cell-based; details: MP9, Isolate ID MP 9
[25] = system: Mycoplasma pneumoniae MP NCTC 10119; test: MIC against Mycoplasma pneumoniae MP NCTC 10119; format: cell-based; details: NCTC10119, Isolate ID MP NCTC 10119
[26] = system: Neisseria gonorrhoeae NG ATCC 49226; test: MIC against Neisseria gonorrhoeae NG ATCC 49226; format: cell-based; details: ATCC49226, Isolate ID NG ATCC 49226
[27] = system: Propionibacterium acnes ATCC 11821; test: MIC against Propionibacterium acnes ATCC 11821; format: cell-based; details: Cutibacterium acnes, ATCC11821; Isolate ID ATCC 11821
[28] = system: Staphylococcus aureus VRS1; test: MIC against Staphylococcus aureus VRS1; format: cell-based; details: Isolate ID VRS1
[29] = system: Staphylococcus aureus VRS2; test: MIC against Staphylococcus aureus VRS2; format: cell-based; details: Isolate ID VRS2
[30] = system: Staphylococcus aureus VRS3; test: MIC against Staphylococcus aureus VRS3; format: cell-based; details: Isolate ID VRS3
[31] = system: Streptococcus pneumoniae ATCC 700671; test: MIC against Streptococcus pneumoniae ATCC 700671; format: cell-based; details: ATCC700671, Isolate ID ATCC 700671
[32] = system: Streptococcus pneumoniae SP 051430; test: MIC against Streptococcus pneumoniae SP 051430; format: cell-based; details: SP051430, Isolate ID SP 051430
[33] = system: Streptococcus pneumoniae (FQR) SP 26054; test: MIC against Streptococcus pneumoniae (FQR) SP 26054; format: cell-based; details: Isolate ID SP 26054
[34] = system: Streptococcus pneumoniae (FQR) SP 25058; test: MIC against Streptococcus pneumoniae (FQR) SP 25058; format: cell-based; details: Isolate ID SP 25058
[35] = system: Streptococcus pneumoniae (MacR) SP 051431; test: MIC against Streptococcus pneumoniae (MacR) SP 051431; format: cell-based; details: Isolate ID SP 051431
[36] = Enterococcus faecalis ATCC 29212, read-out: MICs against Enterococcus faecalis, Activity
[37] = 2 × 30 mg/kg intraperitoneal, 1 and 6 hours after inoculation

CCNC(=O)Nc1nc2cc(-c3cccnc3)nc(-c3cccnc3)c2s1 [Example 180, 1-(4,6-Di-pyridin-3-yl-thiazolo[5,4-c]pyridin-2-yl)-3-ethyl-urea]
MIC ([1]; Enterococcus faecalis, ATCC 29212, Table 5, read-out: MIC against Enterococcus faecalis (Activity)): 0.25 to 1 µg/mL (≈ 0.664 to 2.66 µM) | MIC ([2]; Enterococcus faecalis (VRE) ATCC 51299, read-out: MIC Activity): 0.25 to 1 µg/mL (≈ 0.664 to 2.66 µM) | MIC ([3]; Enterococcus faecium (VRE) ATCC 700221, read-out: MIC Activity): 2 to 16 µg/mL (≈ 5.31 to 42.5 µM) | MIC ([4]; Enterococcus faecium (VSE) ATCC 19434, read-out: MIC Activity): 2 to 16 µg/mL (≈ 5.31 to 42.5 µM) | MIC ([5]; Moraxella catarrhalis ATCC 25240, read-out: MIC Activity): 0.25 to 1 µg/mL (≈ 0.664 to 2.66 µM) | MIC ([6]; Staphylococcus aureus ATCC 29213, read-out: MIC Activity): 2 to 16 µg/mL (≈ 5.31 to 42.5 µM) | MIC ([7]; Staphylococcus epidermidis ATCC 12228, read-out: MIC Activity): 0.25 to 1 µg/mL (≈ 0.664 to 2.66 µM) | MIC ([8]; Staphylococcus haemolyticus ATCC 29970, read-out: MIC Activity): 0.25 to 1 µg/mL (≈ 0.664 to 2.66 µM) | MIC ([9]; Streptococcus mutans ATCC 35668, read-out: MIC Activity): 0.25 to 1 µg/mL (≈ 0.664 to 2.66 µM) | MIC ([10]; Streptococcus pyogenes ATCC 51339, read-out: MIC Activity): 2 to 16 µg/mL (≈ 5.31 to 42.5 µM) | MIC [11]: 0.25 to 1 µg/mL (≈ 0.664 to 2.66 µM) | MIC [12]: 0.25 to 1 µg/mL (≈ 0.664 to 2.66 µM)

CCNC(=O)Nc1nc2cc(-c3cccnc3)cc(-c3cccnc3)c2s1 [Example 4, 1-(5,7-Di-pyridin-3-yl-benzothiazol-2-yl)-3-ethyl-urea]
MIC [1, 36]: 0.25 to 1 µg/mL (≈ 0.666 to 2.66 µM) | Percent survival (Staphylococcus aureus; 2 × 100 mg/kg intraperitoneal, 1 and 6 hours after inoculation): 100

CCNC(=O)Nc1nc2cc(-c3cccnc3)cc(-c3ncccc3F)c2s1 [Example 91, 1-Ethyl-3-[7-(3-fluoro-pyridin-2-yl)-5-pyridin-3-yl-benzothiazol-2-yl]-urea]
MIC [1, 36]: < 0.25 µg/mL | Percent survival (Staphylococcus aureus; [37]): 100

CCNC(=O)Nc1nc2cc(-c3cccnc3)cc(-c3ccccn3)c2s1 [Example 163, 1-Ethyl-3-(5-pyridin-3-yl-7-pyridin-2-yl-benzothiazol-2-yl)-urea]
MIC [1, 36]: < 0.25 µg/mL | Percent survival (Staphylococcus aureus; 1 × 10 mg/kg intraperitoneal, 1 hour after inoculation): 60 | Percent survival (Staphylococcus aureus; 1 × 30 mg/kg intraperitoneal, 1 hour after inoculation): 100 | Percent survival (Staphylococcus aureus; [37]): 100 | MIC [13]: 2 to 16 µg/mL (≈ 5.33 to 42.6 µM) | MIC [14]: 0.25 to 1 µg/mL (≈ 0.666 to 2.66 µM) | MIC [15]: < 0.25 µg/mL | MIC [16]: 0.25 to 1 µg/mL (≈ 0.666 to 2.66 µM) | MIC [17]: 0.25 to 1 µg/mL (≈ 0.666 to 2.66 µM) | MIC ([2]; Enterococcus faecalis, Isolate ID ATCC 51299, read-out: MIC (Activity) against Enterococcus faecalis (VRE)): < 0.25 µg/mL | MIC ([3]; Enterococcus faecium, Isolate ID ATCC 700221, read-out: MIC (Activity) against Enterococcus faecium (VRE)): < 0.25 µg/mL | MIC ([4]; Enterococcus faecium, Isolate ID ATCC 19434, read-out: MIC (Activity) against Enterococcus faecium (VSE)): 0.25 to 1 µg/mL (≈ 0.666 to 2.66 µM) | MIC (Escherichia coli N43): 2 to 16 µg/mL (≈ 5.33 to 42.6 µM) | MIC [18]: 2 to 16 µg/mL (≈ 5.33 to 42.6 µM) | MIC [19]: < 0.25 µg/mL | MIC [20]: < 0.25 µg/mL | MIC [21]: 0.25 to 1 µg/mL (≈ 0.666 to 2.66 µM) | MIC [22]: < 0.25 µg/mL | MIC ([5]; Moraxella catarrhalis, Isolate ID ATCC 25240, read-out: MIC (Activity) against Moraxella catarrhalis): < 0.25 µg/mL | MIC [23]: 0.25 to 1 µg/mL (≈ 0.666 to 2.66 µM) | MIC (Mycoplasma hominis MH 10): 0.25 to 1 µg/mL (≈ 0.666 to 2.66 µM) | MIC [24]: 0.25 to 1 µg/mL (≈ 0.666 to 2.66 µM) | MIC [25]: 0.25 to 1 µg/mL (≈ 0.666 to 2.66 µM) | MIC [26]: 0.25 to 1 µg/mL (≈ 0.666 to 2.66 µM) | MIC [27]: < 0.25 µg/mL | MIC ([6]; Staphylococcus aureus, Isolate ID ATCC 29213, read-out: MIC (Activity) against Staphylococcus aureus): 0.25 to 1 µg/mL (≈ 0.666 to 2.66 µM) | MIC [28]: < 0.25 µg/mL | MIC [29]: < 0.25 µg/mL | MIC [30]: < 0.25 µg/mL | MIC ([7]; Staphylococcus epidermidis, Isolate ID ATCC 12228, read-out: MIC (Activity) against Staphylococcus epidermidis): < 0.25 µg/mL | MIC ([8]; Staphylococcus haemolyticus, Isolate ID ATCC 29970, read-out: MIC (Activity) against Staphylococcus haemolyticus): < 0.25 µg/mL | MIC ([9]; Streptococcus mutans, Isolate ID ATCC 35668, read-out: MIC (Activity) against Streptococcus mutans): < 0.25 µg/mL | MIC [31]: < 0.25 µg/mL | MIC [32]: < 0.25 µg/mL | MIC [33]: < 0.25 µg/mL | MIC [34]: < 0.25 µg/mL | MIC [35]: < 0.25 µg/mL | MIC ([10]; Streptococcus pyogenes, Isolate ID ATCC 51339, read-out: MIC (Activity) against Streptococcus pyogenes): 0.25 to 1 µg/mL (≈ 0.666 to 2.66 µM)

CCNC(=O)Nc1nc2cc(-c3cccnc3)cc(-c3cccc(Cl)n3)c2s1 [Example 88, 1-[7-(6-Chloro-pyridin-2-yl)-5-pyridin-3-yl-benzothiazol-2-yl]-3-ethyl-urea]
MIC [1, 36]: < 0.25 µg/mL | melting point: 249.9 °C
